Laboratory results published in ChEMBL document CHEMBL5303304, “EUbOPEN Chemogenomics Library - IncuCyte” (2023).

How the values were obtained:
Assay type in all cases: toxicity, cell-based
U2OS = assay: Incucyte cell viability with U2OS; conditions: human, 10 µM, compound concentration 10 uM
HEK-293T = assay: Incucyte cell viability with HEK293T; conditions: human, 10 µM, compound concentration 10 uM
Fibroblast = assay: Incucyte cell viability with human fibroblast; conditions: 10 µM, compound concentration 10 uM
Note: unitless GR value; below 1 slowed growth and below 0 cell loss.

| Structure (SMILES) | Growth Rate (U2OS; 6 h, replicate number 1) | Growth Rate (U2OS; 6 h, replicate number 2) | Growth Rate (U2OS; 12 h, replicate number 2) | Growth Rate (U2OS; 18 h, replicate number 2) | Growth Rate (U2OS; 24 h, replicate number 2) | Growth Rate (HEK-293T; 0 h, replicate number 2) | Growth Rate (HEK-293T; 6 h, replicate number 1) | Growth Rate (Fibroblast; 6 h, replicate number 1) | Growth Rate (Fibroblast; 6 h, replicate number 2) | Growth Rate (Fibroblast; 12 h, replicate number 2) | Growth Rate (Fibroblast; 18 h, replicate number 2) | Growth Rate (Fibroblast; 24 h, replicate number 2) | Growth Rate (U2OS; 0 h, replicate number 1) | Growth Rate (HEK-293T; 6 h, replicate number 2) | Growth Rate (Fibroblast; 18 h, replicate number 1) | Growth Rate (HEK-293T; 12 h, replicate number 1) | Growth Rate (HEK-293T; 12 h, replicate number 2) | Growth Rate (HEK-293T; 18 h, replicate number 1) | Growth Rate (HEK-293T; 18 h, replicate number 2) | Growth Rate (HEK-293T; 24 h, replicate number 1) | further results |
| --- | --- | --- | --- | --- | --- | --- | --- | --- | --- | --- | --- | --- | --- | --- | --- | --- | --- | --- | --- | --- | --- |
| Br.CO[C@H]1CC=C2CCN3CCC4=C(CC(=O)OC4)[C@]23C1 | 0.39 | 0.78 | 0.77 | 0.87 | 1 | 0.77 | 0.59 | -1 | 0.8 | 0.64 | 0.7 | 0.72 |  |  |  |  |  |  |  |  | Growth Rate (Fibroblast; 0 h, replicate number 1): 0.93; Growth Rate (Fibroblast; 0 h, replicate number 2): 0.3 |
| CC(C)c1cc(Br)c(NC(=O)Nc2cccnc2)c(Br)c1 |  |  |  |  | 0.98 | 0.91 |  |  | -0.99 | 0.73 | 0.89 |  | -0.34 | 0.84 | -0.82 |  |  |  |  |  |  |
| CC(C1CC2CCC1C2)n1c(S)nnc1-c1ccco1 (configuration not stated) | 0.78 | 0.22 | 0.67 | 0.78 | 0.89 | 0.53 | 0.59 |  |  |  |  |  |  | 0.46 | -0.08 | 0.81 | 0.63 | 0.69 | 0.74 | 0.75 | Growth Rate (U2OS; 12 h, replicate number 1): 0.97; Growth Rate (HEK-293T; 24 h, replicate number 2): 0.81; Growth Rate (Fibroblast; 12 h, replicate number 1): -1 |
| CC1(C)CC(=O)c2c(SCCO)sc(-c3nccs3)c2C1 | 0.66 |  |  |  | 0.97 | 0.82 |  | -1 |  |  |  |  |  |  |  |  |  |  |  |  | Growth Rate (U2OS; 12 h, replicate number 1): 0.87; Growth Rate (U2OS; 18 h, replicate number 1): 0.97; Growth Rate (Fibroblast; 0 h, replicate number 2): -0.3 |
| CCCCCN1C(=O)C2(COc3cc4c(cc32)OCO4)c2ccccc21 (configuration not stated) |  | 0.76 | 0.8 | 0.98 | 0.88 | 0.62 | 0.51 |  | -0.97 | 0.76 | 0.91 | 0.74 | -0.63 | 0.92 | -0.52 |  |  |  |  |  | Growth Rate (U2OS; 0 h, replicate number 2): -1; Growth Rate (Fibroblast; 24 h, replicate number 1): 0.82 |
| CCN(c1ccccc1)c1cc(NC)[n+](C)c(C)n1.[Cl-] | 0.41 | 0.69 | 0.84 | 0.83 |  | 0.56 | 0.95 |  | -1 | 0.8 |  | 0.91 |  |  | -0.22 | 0.84 |  | 0.58 | 0.99 | 0.79 | Growth Rate (U2OS; 0 h, replicate number 2): -0.9; Growth Rate (U2OS; 24 h, replicate number 1): 0.87; Growth Rate (Fibroblast; 0 h, replicate number 1): -0.7; Growth Rate (Fibroblast; 24 h, replicate number 1): 0.44 |
| S=c1[nH]nc(-c2cccs2)n1-c1ccccc1 |  | 0.93 | 0.8 | 0.87 |  | 0.81 | 0.53 |  | -0.3 |  |  |  | 0.53 | 0.97 | -0.25 | 0.58 | 0.73 | 0.91 | 0.87 | 0.9 | Growth Rate (U2OS; 18 h, replicate number 1): 0.95; Growth Rate (HEK-293T; 24 h, replicate number 2): 0.83; Growth Rate (Fibroblast; 0 h, replicate number 1): 0.04; Growth Rate (Fibroblast; 0 h, replicate number 2): -0.79; Growth Rate (Fibroblast; 12 h, replicate number 1): -0.72; Growth Rate (Fibroblast; 24 h, replicate number 1): 0.01 |
| CC(C)Oc1ccc(-c2cnc3c(-c4ccnc5ccccc45)cnn3c2)cc1 |  | 0.23 | 0.74 | 0.79 | 0.97 | 0.99 | -0.63 | 0.72 |  |  |  |  | -0.36 |  | 0.49 | -0.46 |  | -0.07 |  | 0.3 | Growth Rate (Fibroblast; 0 h, replicate number 2): -0.98; Growth Rate (Fibroblast; 12 h, replicate number 1): -1 |
| COc1cc(NC(=O)c2ccc(-c3ccc(Cl)cc3)o2)cc(OC)c1 |  | 0.2 | 0.72 | 0.89 | 0.79 | 0.52 | 0.31 |  | -1 | 0.03 | 0.54 | 0.45 | 0.66 |  | 0.5 |  |  |  |  |  | Growth Rate (U2OS; 24 h, replicate number 1): 0.98; Growth Rate (Fibroblast; 0 h, replicate number 1): 0.51 |
| C[C@@H](CN1CCC(Cc2ccccc2)CC1)[C@@H](O)c1ccc(O)cc1 | 0.07 |  |  | 0.99 |  | 0.98 |  | -0.49 | -0.45 | 0.48 | 0.53 | 0.68 | -0.54 | 0.36 |  |  | 0.86 |  |  |  | Growth Rate (U2OS; 0 h, replicate number 2): -0.81; Growth Rate (U2OS; 12 h, replicate number 1): 0.85; Growth Rate (U2OS; 18 h, replicate number 1): 0.98; Growth Rate (U2OS; 24 h, replicate number 1): 0.96; Growth Rate (Fibroblast; 12 h, replicate number 1): -0.59; Growth Rate (Fibroblast; 24 h, replicate number 1): 0.78 |
| Cc1cc(-c2nncc3c(C(C)(C)C)c(OCc4ncnn4C)nn23)no1 | 0.85 | 0.23 | 0.67 | 0.71 | 0.86 | 0.72 | 0.14 | 1 | -0.97 | 0.98 | 0.78 | 0.87 |  | 0.78 | 0.1 | 0.35 | 0.53 | 0.1 | 0.57 | 0.14 | Growth Rate (U2OS; 0 h, replicate number 2): -0.99; Growth Rate (U2OS; 18 h, replicate number 1): 0.82; Growth Rate (U2OS; 24 h, replicate number 1): 0.93; Growth Rate (HEK-293T; 24 h, replicate number 2): 0.61; Growth Rate (Fibroblast; 0 h, replicate number 1): -0.5; Growth Rate (Fibroblast; 24 h, replicate number 1): 0.26 |
| Cn1ncnc1COc1nn2c(-c3cc(F)ccc3F)nnc2cc1C(C)(C)C | 0.51 |  | 0.78 | 0.76 | 0.76 | 0.38 |  |  |  | 0.29 | 0.56 | 0.57 |  | 0.37 |  | 0.42 | 0.63 | 0.42 | 0.77 | 0.28 | Growth Rate (HEK-293T; 24 h, replicate number 2): 0.88; Growth Rate (Fibroblast; 0 h, replicate number 1): 0.93 |
| COCCNc1cc(NC(=O)N2CCCc3cc(CN4CCOCC4=O)c(C=O)nc32)ncc1C#N | 0.95 |  |  |  |  | 0.81 | 0.42 | 0.86 | -1 | 0.58 |  | 0.95 | -0.03 |  | -0.07 |  |  |  |  |  | Growth Rate (Fibroblast; 12 h, replicate number 1): -1; Growth Rate (Fibroblast; 24 h, replicate number 1): 0.7 |
| CC(C)(C)C1CCc2c(sc(NC(=O)c3ccco3)c2C(=O)O)C1 (configuration not stated) | -0.02 | 0.95 | 0.8 | 0.79 | 0.84 | 0.67 | -0.05 | 0.79 | -0.97 | 0.65 |  |  |  | 0 | -0.68 | -0.04 | -0.11 | -0.24 | -0.17 | -0.21 | Growth Rate (U2OS; 0 h, replicate number 2): -1; Growth Rate (HEK-293T; 24 h, replicate number 2): -0.13; Growth Rate (Fibroblast; 0 h, replicate number 1): -0.35; Growth Rate (Fibroblast; 0 h, replicate number 2): -0.91; Growth Rate (Fibroblast; 12 h, replicate number 1): -1 |
| Cn1c(=O)n(CCCO)c(=O)c2c1nc(Oc1cccc(Cl)c1)n2Cc1ccc(Cl)cc1 | 0.38 |  | 0.93 | 0.82 | 0.89 | 0.3 |  |  | -0.99 | 0.66 |  | 0.85 |  | 0.26 | 0.33 |  | 0.77 |  | 0.84 |  | Growth Rate (U2OS; 18 h, replicate number 1): 0.86; Growth Rate (U2OS; 24 h, replicate number 1): 0.94; Growth Rate (HEK-293T; 24 h, replicate number 2): 0.83 |
| COc1cc([N+](=O)[O-])ccc1NC(=O)c1ccccc1O | 0.2 | 0.94 | 0.63 | 0.46 | 0.55 | 0.91 | -0.49 | -0.98 |  | 0.57 | 0.65 | 0.64 | 0.1 | -0.12 |  | -0.12 | -0.05 | -0.01 | -0.02 | 0.08 | Growth Rate (U2OS; 0 h, replicate number 2): -0.67; Growth Rate (U2OS; 12 h, replicate number 1): 0.27; Growth Rate (U2OS; 18 h, replicate number 1): 0.4; Growth Rate (U2OS; 24 h, replicate number 1): 0.48; Growth Rate (HEK-293T; 24 h, replicate number 2): -0.01; Growth Rate (Fibroblast; 0 h, replicate number 2): 0.04 |
